Reference: US5629289A, “Cyclic peptide antifungal agents” (Eli Lilly and Company, priority 1995, dated 1997)
≈ marks a conversion by molar mass, not a printed value. *1 amine or outer side, *2 acyl side, *3 side chain or, on linkers, in order; H or OH if unused. Where a SMILES comes first, the peptide text is derived from it. Bridges are numbered along the chain shown (N, C = ends). [ ]: non-standard residue; d: D form. The star is where a group is joined. ξ: configuration not given here. pTerphenylCO(4''-OnC5H11) = CCCCCOc1ccc(-c2ccc(-c3ccc(C(=O)*)cc3)cc2)cc1; ξOrn(4ξ-OH) = O=C(C(CC(O)CN[*:3])N[*:1])[*:2]; ξhTyr(βOH) = NC(C(=O)O)C(O)Cc1ccc(O)cc1; ξPro(3ξ-OH,4ξ-Me) = CC1CNC(C(=O)O)C1O; ξHyp = O=C(O)C1CC(O)CN1

System: C. albicans
Format: cell-based
Experimental: Antifungal activity of a test compound is determined in vitro by obtaining the minimum inhibitory concentration (MIC) of the compound using a standard agar dilution test or a disc-diffusion test. The compound is then tested in vivo (in mice) to determine the effective dose of the test compound for controlling a systemic fungal infection. Accordingly, the compound prepared in Example 1C was tested for antifungal activity against C. albicans.

minimal inhibitory concentration (MIC) against C. albicans: 0.312 µg/mL (≈ 0.306 µM)
SMILES: CCCCCOc1ccc(-c2ccc(-c3ccc(C(=O)NC4CC(O)CNC(=O)C5C(O)C(C)CN5C(=O)CNC(=O)C(C(O)Cc5ccc(O)cc5)NC(=O)C5CC(O)CN5C(=O)CNC4=O)cc3)cc2)cc1 (stereo not shown) [Example 1C] ({pTerphenylCO(4''-OnC5H11)}-[ξOrn(4ξ-OH)]G[ξHyp][ξhTyr(βOH)]G[ξPro(3ξ-OH,4ξ-Me)]; lactam 1-C)
